Here are results for five compounds from US20220220106A1, “QUINOLINE COMPOUNDS AND PHARMACEUTICAL COMPOSITIONS AND USES THEREOF” (Academy of Military Medical Sciences, priority 2019, published 2022).

A short description of series [1]: In vivo drug metabolism (pharmacokinetics) in mice, iv and po. To be noted: for apparent volume of distribution (Vss), in words / area under curve (AUC) through injection administration route, in words / clearance rate (CL), in words: iv; for Tmax / AUC / clearance / half-life / Vd / C0 / Cmax: male, plasma; for Tmax: C57, mouse, 10 mg/kg; for AUC / clearance / half-life / Vd / C0 / Cmax: mouse; for clearance: read-out: CL iv; for Vd: read-out: Vss iv; for F po: oral bioavailability, po 10 mg/kg vs iv 1 mg/kg. Details: species or system C57 male mice. As for the experimental part:
Experimental animals: C57 male mice (purchased from Beijing Vital River Laboratory Animal Technology Co., Ltd.), bred for 6-8 weeks and weighing 20-30 g, 3 mice in each group of iv/po groups, a total of 6 groups.
Preparation of Sample Solutions:
(1) Preparation of sample solution (1 mg/kg, 5 mL/kg) for injection (iv): 1 mg of the sample to be tested was dissolved in 0.5 mL DMSO, mixed by a vortex mixer, and treated ultrasonically to obtain a stock solution (2 mg/mL); 0.10 mL of the stock solution (2 mg/mL) was added to a vial, then 0.4 mL of PEG400 and 0.5 mL of water were added, and mixed by a vortex shaker, treated ultrasonically to obtain a sample solution with a concentration of 0.2 mg/mL.
(2) Preparation of sample solution (10 mg/kg, 10 mL/kg) for oral administration (po): 1 mg of the sample to be tested was dissolved in 1 mL of “0.5% CMC/0.1% Tween-80 aqueous solution”, mixed by a vortex mixer, and treated ultrasonically to obtain a suspension of the sample to be tested with a concentration of 1 mg/mL.
(§1) Liquid Chromatography Method:
(1) Chromatographic column: Waters XSELECT CSH C18, 2.5 μm 2.1×50 mm chromatographic column.
(2) Mobile phase: Phase A: 5% acetonitrile in aqueous solution (0.1% formic acid); Phase B: 95% acetonitrile in aqueous solution (0.1% formic acid).
(3) Flow rate: 0.6 mL/min.
(4) Sampling volume: 20 μL.
For each compound, po group and iv group were set for administration. All experimental animals were fasted overnight before administration, and all administration was performed at room temperature.
Sampling time: for iv group, sampling was performed at 0.083, 0.25, 0.5, 1, 2, 4, 8 and 24 hours after injection administration (iv); for po group, sample was performed at 0.25, 0.5, 1, 2, 4, 8 and 24 hours after oral administration (po).
(1) At each time point, about 0.03 mL of blood was collected. The blood of each sample was transferred to a plastic microcentrifuge tube containing heparin sodium anticoagulant, mixed well with the anticoagulant, and then cooled on ice and centrifuged.
(2) The blood sample was centrifuged at 4000 rpm for 5 minutes at 4° C. to obtain plasma.
(3) The samples was stored in a refrigerator at −75±15° C. for later test.
Analysis and Identification:
The mixed solution of acetonitrile and water (1:1) was used to dilute the stock solution to prepare a series of working solutions.
3 μL of working solution (5, 10, 20, 50, 100, 500, 1000, 5000, 10000 ng/mL) was added to 30 μL of C57 mouse blank plasma to obtain a standard solution with a concentration of 0.5-1000 ng/mL (0.5, 1, 2, 5, 10, 50, 100, 500, 1000 ng/mL), in total of 33 μL. Four quality control samples of 1 ng/mL, 2 ng/mL, 50 ng/mL and 800 ng/mL were used to calibrate the standard curve.
(2) The quality control samples were prepared on the day of analysis, and the method was the same as the standard solution.
(3) 200 μL of acetonitrile containing internal standard solution was added to 33 μL of standard samples, 33 μL of quality control samples and 33 μL of unknown sample (30 μL of plasma and 3 μL of blank solution) to precipitate protein, respectively. The samples were mixed by a vortex mixer for 30 seconds and mixed well. The precipitated samples were centrifuged for 15 minutes at 4° C. and 4000 rpm.
(4) The supernatant was pipetted quantitatively and diluted by 3 times with water, then the diluted supernatant was loaded and quantitatively analyzed by liquid chromatography-mass spectrometry technology.
(5) Detection data were obtained, and pharmacokinetic parameters such as T1/2, Cmax, AUC, AUC, CL, Vss, F were calculated.

Series [2] is described as follows: Water solubility in saturated aqueous solution (HPLC, one-point method). The series is classed as physicochemical. To be noted: for Water solubility: deionized water, 25° C. How it is done: By measuring the solubility of compound in a saturated aqueous solution, the water solubility of the compound was further investigated.
Preparation of Supersaturated Solution:
(1) About 1 mg of the compound to be tested was weighed and added to a 25 mL tube;
(2) 5 mL of deionized water was added, shaken well, placed in a vortex shaker and mixed for 30 seconds, then treated ultrasonically for 30 seconds;
(3) The tube was placed in a constant temperature water bath, and allowed to stand in a constant temperature water bath at 25° C. for 1 hour;
(4) The operation of (2) was repeated, and the standing at constant temperature of 25° C. was continued for 1 hour;
(5) The prepared supersaturated solution supernatant was taken out and placed in a centrifuge tube, centrifuged at 15000 rpm for 5 minutes, and the upper centrifugate was taken out for later use.
as §1
(1) Chromatographic column: Agilent XDB Eclipse C18, 25 cm×4.6 mm×5 μm liquid chromatography column.
(2) Mobile phase: Phase A: water (0.1% trifluoroacetic acid); Phase B: acetonitrile.
(3) Flow rate: 1.0 mL/min.
(4) Sampling volume: 10 μl.
Preparation of standard solution: 1.0 mg of the sample to be tested was accurately weighed, added to a 10 mL volumetric flask, dissolved in methanol as solvent, metered to a constant volume of 10 mL, the concentration of solution was calculated, and it was used as a standard solution for later use.
By using the one-point method, the chromatographic peak area of the standard solution of the sample to be tested was determined, and then the peak area of the supersaturated compound was determined, and the solubility of the compound to be tested in water was calculated accordingly.

The mark [3] stands for this setting: po, po 10 mg/kg, read-out: Tmax po.
The mark [4] stands for this setting: po, po, read-out: peak time Tmax.
Where [5] appears, read: iv 1 mg/kg, C57 mice, read-out: AUC iv.
The mark [6] stands for this setting: iv 1 mg/kg, C57 mice, read-out: T1/2 iv (converted).
[7] abbreviates: po 10 mg/kg, C57 mice, read-out: AUC po.
The mark [8] stands for this setting: po 10 mg/kg, C57 mice, read-out: T1/2 po (converted).

Where two headings read alike, the source gives them in different places. Bounds are passed on as bounds.

As to `O=c1ccc2cnc3ccc(-c4cccnc4F)cc3c2n1-c1cccc(C(F)(F)F)c1` [HTL-6-48, 9-[3-(2-fluoro)pyridyl]-2-oxo-1-[3-(trifluoromethyl)phenyl]-1,2-dihydrobenzo [h][1,6]naphthyridine], in series [1] (C57 mice), the “highest blood concentration C0/Cmax, in words” value is “relatively high”; the “apparent volume of distribution (Vss), in words” value (“apparent volume of distribution” for short) is listed as “lower”; the “area under curve (AUC) through injection administration route, in words” value (from here on “area under curve”) is given as “relatively high”. In series [1] (setting [3]), the Tmax was determined as 15 min. Further, the Tmax in series [1] (setting [4]) is 15 min. Further, in series [1] (setting [5]), the AUC was 651 ng·h/mL. Besides, in series [1] (iv 1 mg/kg, C57 mice), the clearance came to 25.6 mL/min/kg, the Vd is 1.59 L/kg and the C0 stood at 651 ng/mL. Also, the half-life in series [1] (setting [6]) is 50.4 min. Besides, the AUC in series [1] (setting [7]) stood at 1330 ng·h/mL. Moreover, the half-life in series [1] (setting [8]) is 59.4 min. In series [1] (po 10 mg/kg, C57 mice), this compound showed a Cmax of 1290 ng/mL. In addition, in series [2], the “water solubility, in words” value is on record as “relatively high water solubility” and the Water solubility came to 5.88 µg/mL.

Turning to `O=c1ccc2cnc3ccc(-c4ccc(F)nc4)cc3c2n1-c1cccc(C(F)(F)F)c1` [HTL-7-01, 9-[3-(6-fluoro)pyridyl]-2-oxo-1-[3-(trifluoromethyl)phenyl]-1,2-dihydrobenzo[h][1,6]naphthyridine], in series [1] (C57 mice), the “apparent volume of distribution” value is given as “lower”; the “area under curve” value is on record as “relatively high”; the F po turned out to be 12.2%. Moreover, the Tmax in series [1] (setting [3]) was determined as 30 min. The Tmax in series [1] (setting [4]) was greater than 30 min. Further, in series [1] (setting [5]), the AUC turned out to be 592 ng·h/mL. In series [1] (iv 1 mg/kg, C57 mice), the clearance is 27.8 mL/min/kg, the Vd amounted to 2.29 L/kg and the C0 was 574 ng/mL. Besides, in series [1] (setting [6]), the half-life is 63 min. In addition, the AUC in series [1] (setting [7]) worked out at 699 ng·h/mL. The half-life in series [1] (setting [8]) was 121 min. Also, in series [1] (po 10 mg/kg, C57 mice), the concentration peaked (Cmax) at 298 ng/mL. Besides, the “AUC through oral administration, in words” value in series [1] (po, C57 mice) is given as “lower”. The compound further returned a Water solubility in series [2] of 0.42 µg/mL.

`CCC(=O)Nc1ccc(-c2ccc3ncc4ccc(=O)n(-c5cccc(C(F)(F)F)c5)c4c3c2)cn1` [HTL-6-45, 9-[3-(6-propionylamino)pyridyl]-2-oxo-1-[3-(trifluoromethyl)phenyl]-1,2-dihydrobenzo[h][1,6]naphthyridine]: in series [1] (C57 mice), the “apparent volume of distribution” value is recorded as “slightly higher”; the “clearance rate (CL), in words” value is given as “relatively higher clearance rate”; the F po is given as 3.89%. Also, the Tmax in series [1] (setting [3]) is 15 min. Further, the Tmax in series [1] (setting [4]) was 15 min. Moreover, the AUC in series [1] (setting [5]) was 95 ng·h/mL. In series [1] (iv 1 mg/kg, C57 mice), the clearance was 176 mL/min/kg, the Vd is 3.25 L/kg and the C0 is 398 ng/mL. The half-life in series [1] (setting [6]) is 19.4 min. Also, the AUC in series [1] (setting [7]) was found to be 35.4 ng·h/mL. Moreover, in series [1] (setting [8]), the half-life was 50.4 min. Also, the Cmax in series [1] (po 10 mg/kg, C57 mice) was 42.9 ng/mL. Besides, in series [2], the Water solubility is 0.39 µg/mL.

With `COc1ccc(-c2ccc3ncc4ccc(=O)n(-c5cccc(C(F)(F)F)c5)c4c3c2)cn1` [HTL-7-03, 9-[3-(6-methoxy)pyridyl]-2-oxo-1-[3-(trifluoromethyl)phenyl]-1,2-dihydrobenzo[h][1,6]naphthyridine], in series [1] (C57 mice), the “half-life T1/2, in words” value was “relatively longer half-life”; the “apparent volume of distribution” value is given as “slightly higher”; the “area under curve” value is “relatively high”. In series [1] (setting [3]), the Tmax worked out at 40 min. The Tmax in series [1] (setting [4]) was greater than 30 min. Further, the AUC in series [1] (setting [5]) stood at 668 ng·h/mL. Also, in series [1] (iv 1 mg/kg, C57 mice), the clearance was found to be 24.1 mL/min/kg, the Vd stood at 3.24 L/kg and the C0 was 596 ng/mL. Besides, the half-life in series [1] (setting [6]) was 110 min. Moreover, in series [1] (setting [7]), the AUC amounted to 1640 ng·h/mL. Besides, the half-life in series [1] (setting [8]) is 74.4 min. Moreover, the highest level in series [1] (po 10 mg/kg, C57 mice) (Cmax) was 565 ng/mL. Also, the Water solubility in series [2] is 0.61 µg/mL.

For the compound `CN1CCN(c2ccc(-c3ccc4ncc5ccc(=O)n(-c6cccc(C(F)(F)F)c6)c5c4c3)cn2)CC1` [HTL-7-17, 9-{3-[6-(4-methylpiperazin-1-yl)pyridyl]}-2-oxo-1-[3-(trifluoromethyl)phenyl]-1,2-dihydrobenzo[h][1,6]naphthyridine], in series [1] (C57 mice), the “apparent volume of distribution” value is “slightly higher” and the “clearance rate (CL), in words” value is recorded as “relatively higher clearance rate”. Moreover, the Tmax in series [1] (setting [3]) was 20 min. Also, the Tmax in series [1] (setting [4]) turned out to be 19.8 min. Also, the AUC in series [1] (setting [5]) was 168 ng·h/mL. In addition, in series [1] (iv 1 mg/kg, C57 mice), the clearance came out at 99 mL/min/kg, the Vd came out at 3.59 L/kg and the C0 came to 364 ng/mL. Also, in series [1] (setting [6]), the half-life is 43.1 min. Moreover, the AUC in series [1] (setting [7]) came to 357 ng·h/mL. The half-life in series [1] (setting [8]) is 94.8 min. Moreover, in series [1] (po 10 mg/kg, C57 mice), the Cmax came to 144 ng/mL. In addition, in series [2], the “water solubility, in words” value is listed as “relatively high water solubility” and the Water solubility is 18.64 µg/mL.
